Where two headings read alike, the source gives them in different places. Bridge positions count the residues as written; N and C are the ends. Square brackets hold non-standard residues; d marks the D form. Peptide text beside a SMILES is read from it. hPhe(3,5-F2-4-CF3) = N[C@@H](CCc1cc(F)c(C(F)(F)F)c(F)c1)C(=O)O; NEtPhe(4-Me) = CCN[C@@H](Cc1ccc(C)cc1)C(=O)O; NMeGly(cPent) = CN[C@H](C(=O)O)C1CCCC1; NMeD = CN[C@@H](CC(=O)O)C(=O)O; NMeL = CN[C@@H](CC(C)C)C(=O)O; NMeA = CN[C@@H](C)C(=O)O; Ac5c = NC1(C(=O)O)CCCC1; Aze = O=C(O)[C@@H]1CCN1; Sar = CNCC(=O)O
Experiments:
NCI-H358 [1] = experiment: Cell growth inhibitory activity, ATP (CellTiter-Glo 2.0), isobologram (Example 2), NCI-H358; format: cell-based, Human; settings: 144 hours
Procedure: (§1) Human cancer cell lines were seeded on a 384-well round bottom ultra-low attachment plate at a concentration of 750 cells per well and cultured in a 5% carbon gas incubator at 37°C. After 24 hours, CellTiter-Glo 2.0 (Promega Corporation) was added to part of the wells (3 wells), and the amount of ATP (V0) was determined using Envision plate readers (PerkinElmer Co., Ltd.). V0 was taken as the amount of ATP at time 0. DMSO alone or compound 1 and/or the compound for combined use each were added to another three wells. Compound 1 and the compound for combined use were used by serially diluting in 8 steps at a common ratio of 3 with 300 nM and 10 or 3000 nM taken as their respective highest concentrations. […] After culturing for 144 hours after addition of DMSO alone or compound 1 and/or the compound for combined use, the amount of ATP (T and V) was determined for the cells to which DMSO alone was added (DMSO-treated group) or the cells to which compound 1 and/or the compound for combined use was added (compound 1 and/or compound for combined use-treated group). […] The growth inhibition rate (Growth Inhibition %: GI%) was calculated using the following formulas. […] (1−(T−V0)/V0) × 100 [formula] (when T < V0) (1−(T−V0)/(V−V0)) × 100 [formula] […]

NCI-H441 = experiment: Cell growth inhibitory activity, ATP (CellTiter-Glo 2.0), isobologram (Example 2), NCI-H441; format: cell-based, Human; settings: set GI% 100%, 144 hours, test with RMC-4550
Procedure: as §1

[2] = test system: lung cancer line NCI-H1373 (KRAS-G12C); experiment: In vivo antitumor activity, NCI-H1373 xenograft model (Example 11); set-up: species or system Nude mice; settings: compound 1 5 mg/kg orally once a day, TNO155 5 mg/kg orally twice a day, 35 days, Figure 19
From the text: A xenograft model to which lung cancer line NCI-H1373 (KRAS-G12C) was transplanted was used to evaluate in vivo antitumor activity due to combined use of compound 1 and TNO155. Nude mice were subcutaneously transplanted with 5 × 10^6 cells per mouse, and when the tumor volume reached 200 to 300 mm^3, the nude mice were randomized and administration of compound 1 and/or the compound for combined use was started (n = 8). Compound 1 was orally administered once a day and TNO155 was orally administered twice a day for an administration period of 35 days. The doses of the agents were 5 mg/kg for compound 1 and 5 mg/kg for TNO155. Compound 1 was dissolved in 10% DMSO/5% Cremphor EL/85% Distilled water and TNO155 was dissolved in 0.5% Tween 80/0.5% methylcellulose/99% distilled water, and administered. From the tumor volume data on the last measurement day, the tumor growth inhibition rate (Tumor Growth Inhibition %: TGI%) was calculated using the following formulas. […] Tumor growth inhibition rate (TGI%) = (1−TV/CV) × 100 [formula] Tumor volume (mm^3) = 1/2 × major axis (mm) × minor axis (mm) × minor axis (mm) [formula] [formula] • TV: Mean of the amount of change in tumor volume in the compound 1 monotherapy group, the TNO155 monotherapy group, or the combined use group • CV: Mean of the amount of change in tumor volume in the vehicle group

NCI-H358 [3] = settings: read-out: set GI concentration (concentration as a single drug giving GI 50), set GI% 50%, 144 hours, test with trametinib
Procedure: as §1

NCI-H1373 (KRAS-G12C) = experiment: In vivo antitumor activity, NCI-H1373 xenograft model (Example 12); set-up: species or system Nude mice; settings: compound 1 3 mg/kg or 5 mg/kg, compound 2 0.25 mg/kg, orally once a day, 14 days, Figure 21
Procedure: (§2) A xenograft model to which lung cancer line NCI-H441 (KRAS-G12C) or NCI-H1373 (KRAS-G12C) was transplanted was used to evaluate in vivo antitumor activity due to combined use of compound 1 and compound 2. Nude mice were subcutaneously transplanted with 5 × 10^6 cells per mouse, and when the tumor volume reached 200 to 300 mm^3, randomization was performed and administration of compound 1 and/or the compound for combined use was started (n = 5). Compound 1 and compound 2 were orally administered once a day for an administration period of 14 days. The doses of the agents were 3 mg/kg or 5 mg/kg for compound 1 and 0.25 mg/kg for compound 2. Compound 1 was dissolved in 10% DMSO/5% Cremphor EL/85% Distilled water and compound 2 was dissolved in 10% DMSO/10% Cremphor EL/15% PEG400/15% HPBCD/50% distilled water, and administered. From the tumor volume data on the last measurement day, the tumor growth inhibition rate (Tumor Growth Inhibition %: TGI%) was calculated using the following formulas. […] Tumor growth inhibition rate (TGI%) = (1−TV/CV) × 100 [formula] Tumor volume (mm^3) = 1/2 × major axis (mm) × minor axis (mm) × minor axis (mm) [formula] [formula] • TV: Mean of the amount of change in tumor volume in the compound 1 monotherapy group, the compound 2 monotherapy group, or the combined use group • CV: Mean of the amount of change in tumor volume in the vehicle group

[4] = test system: lung cancer line NCI-H441 (KRAS-G12C); experiment: In vivo antitumor activity, NCI-H441 xenograft model (Example 12); set-up: species or system Nude mice; settings: compound 1 3 mg/kg or 5 mg/kg, compound 2 0.25 mg/kg, orally once a day, 14 days, Figure 20
Procedure: as §2

Cc1nc(N2CCC3(CC2)CO[C@@H](C)[C@H]3N)c(CO)nc1-c1cccc(Cl)c1Cl [RMC-4550, 3-[(3S,4S)-4-amino-3-methyl-2-oxa-8-azaspiro[4.5]deca-8-yl]-6-(2,3-dichlorophenyl)-5-methyl-2-pyrazinemethanol]
set GI concentration (concentration as a single drug giving GI 155) (NCI-H358 [1]; set GI% 155%, test with RMC-4550): 0.55 µM | set GI concentration (concentration as a single drug giving GI 100) (NCI-H441): 0.35 µM

C[C@@H]1OCC2(CCN(c3cnc(Sc4ccnc(N)c4Cl)c(N)n3)CC2)[C@@H]1N [TNO155, (3S,4S)-8-(6-amino-5-((2-amino-3-chloropyridine-4-yl)thio)pyrazine-2-yl)-3-methyl-2-oxa-8-azaspiro[4.5]decane-4-amine]
tumor volume, compared with vehicle group [2]: increase in tumor volume suppressed

CC[C@H](C)[C@@H]1NC(=O)[C@H](CC(C)C)N(C)C(=O)C[C@@H](C(=O)N(C)C)N(C)C(=O)[C@H](C2CCCC2)N(C)C(=O)C2(CCCC2)NC(=O)[C@@H]2CCCN2C(=O)[C@H](CCc2cc(F)c(C(F)(F)F)c(F)c2)NC(=O)CN(C)C(=O)[C@H](Cc2ccc(C)cc2)N(CC)C(=O)[C@@H]2CCN2C(=O)[C@H](C)N(C)C1=O [compound 1, (5S,8S,11S,15S,18S,23aS,29S,35S,37aS)-8-((S)-sec-butyl)-18-cyclopentyl-29-(3,5-difluoro-4-(trifluoromethyl)phenethyl)-36-ethyl-11-isobutyl-N,N,5,6,12,16,19,33-octamethyl-35-(4-methylbenzyl)-4,7,10,13,17,20,23,28,31,34,37-undecaoxotetratriacontahydro-2H,4H-spiro[azeto[2,1-u]pyrrolo[2,1-i][1,4,7,10,13,16,19,22,25,28,31]undecaazacyclotetratriacontyne-21,1'-cyclopentane]-15-carboxamide] ([NMeL]I[NMeA][Aze][NEtPhe(4-Me)][Sar][hPhe(3,5-F2-4-CF3)]P[Ac5c][NMeGly(cPent)][NMeD]-NMe2; lactam N-11)
GI50 (NCI-H358 [3]): 4.6 nM

CNS(=O)(=O)Nc1nccc(Cc2cc(C(N)=O)c(Nc3ccc(C4CC4)cc3F)c(F)c2F)c1F [compound 2, 2-(4-cyclopropyl-2-fluoro-anilino)-3,4-difluoro-5-[[3-fluoro-2-(methylsulfamoylamino)-4-pyridyl]methyl]benzamide]
tumor volume, compared with vehicle group (NCI-H1373 (KRAS-G12C)): increase in tumor volume suppressed | tumor volume, compared with vehicle group [4]: increase in tumor volume suppressed

CC(=O)Nc1cccc(-n2c(=O)n(C3CC3)c(=O)c3c(Nc4ccc(I)cc4F)n(C)c(=O)c(C)c32)c1 [trametinib, N-[3-[3-cyclopropyl-5-(2-fluoro-4-iodo-phenylamino)-6,8-dimethyl-2,4,7-trioxo-3,4,6,7-tetrahydro-2H-pyrido[4,3-d]pyrimidine-1-yl]phenyl]acetamide]
GI50 (NCI-H358 [1]; Homo sapiens, set GI% 50%, single drug, test with trametinib, read-out: set GI concentration (concentration as a single drug giving GI 50)): 0.35 nM

Source: patent EP4467154A1, “MEDICINE FOR TREATING OR PREVENTING CANCER” (CHUGAI SEIYAKU KABUSHIKI KAISHA, priority 2022, dated 2023)
